Reference: patent publication US20200262813A1, “1,5,7-TRISUBSTITUTED ISOQUINOLINE DERIVATIVES, PREPARATION THEREOF, AND USE THEREOF IN MEDICINES” (SHANGHAI HAIYAN PHARMACEUTICAL TECHNOLOGY CO., LTD., priority 2016, published 2020)
pIC50: −log10 of the molar value.

Target: Recombinant PRC2 (EZH2-Y641F) (Homo sapiens, UniProt Q15910, Y641F)
Experiment: In vitro methyltransferase activity test (LANCE Ultra);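 also: compounds tested as an 8-point threefold dilution series, fluorescence read after 1 h detection step at room temperature, IC50 derived from a four-parameter curve fit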
Conditions: EZH2 Y641F IC50, Recombinant PRC2 (EZH2-Y641F), LANCE Ultra detection, 3 hours reaction
Description: In Vitro Methyltransferase Activity Test
Recombinant PRC2 (EZH2-Y641F) was purchased from Active motif, S-adenosyl-methionine (SAM) and Poly-L-lysine (PLL) were purchased from Sigma-Aldrich, H3(1-50)K27mel polypeptide was purchased from Cisbio. LANCEUltra system (Perkinelmer) was used for detection. In the enzyme activity test, a compound to be tested was 1:3 diluted for 8 gradient points, added into a reaction plate, and then added 100 ng recombinant enzyme. And then a buffer [20 mM Tris pH8.5, 2 mM MgCl2, 0.01% Tween-20, 1 mM TCEP] containing 2.5 M SAM/250 nM H3(1-50)K27mel premixture was added to conduct an enzyme reaction at room tempreture. After reacted for 3 hours, a dection solution containing premixed PLL, detection antibody and Ulight was added, reacted for 1 h at RT, then fluorescence was read on Tecan infinite pro. IC50s were calculated by four-factor model fitting in a XLfit software.

Recombinant PRC2 (EZH2-Y641F), sequence (Q15910 whole entry Y641F): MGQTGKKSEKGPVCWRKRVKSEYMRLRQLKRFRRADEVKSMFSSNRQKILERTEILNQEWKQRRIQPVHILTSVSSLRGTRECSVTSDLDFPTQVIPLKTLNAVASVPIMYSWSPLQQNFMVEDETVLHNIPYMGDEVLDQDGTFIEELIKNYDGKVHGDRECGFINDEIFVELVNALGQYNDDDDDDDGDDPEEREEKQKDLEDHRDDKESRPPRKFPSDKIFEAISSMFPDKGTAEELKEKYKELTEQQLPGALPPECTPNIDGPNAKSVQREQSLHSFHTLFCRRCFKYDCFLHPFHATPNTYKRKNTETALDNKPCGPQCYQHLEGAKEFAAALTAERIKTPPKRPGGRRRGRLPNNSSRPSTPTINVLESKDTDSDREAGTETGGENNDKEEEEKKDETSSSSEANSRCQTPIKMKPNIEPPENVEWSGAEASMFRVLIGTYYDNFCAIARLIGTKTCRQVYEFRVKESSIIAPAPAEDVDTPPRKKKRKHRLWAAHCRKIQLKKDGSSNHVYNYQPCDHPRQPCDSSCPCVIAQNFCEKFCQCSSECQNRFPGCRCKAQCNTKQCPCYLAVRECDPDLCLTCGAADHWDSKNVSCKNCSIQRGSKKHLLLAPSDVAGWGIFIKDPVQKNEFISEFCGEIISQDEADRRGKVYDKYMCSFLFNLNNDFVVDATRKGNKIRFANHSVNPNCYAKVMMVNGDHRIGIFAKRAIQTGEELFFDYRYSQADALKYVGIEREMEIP
Recombinant PRC2 (EZH2-Y641F), sequence (O75530 whole entry partner): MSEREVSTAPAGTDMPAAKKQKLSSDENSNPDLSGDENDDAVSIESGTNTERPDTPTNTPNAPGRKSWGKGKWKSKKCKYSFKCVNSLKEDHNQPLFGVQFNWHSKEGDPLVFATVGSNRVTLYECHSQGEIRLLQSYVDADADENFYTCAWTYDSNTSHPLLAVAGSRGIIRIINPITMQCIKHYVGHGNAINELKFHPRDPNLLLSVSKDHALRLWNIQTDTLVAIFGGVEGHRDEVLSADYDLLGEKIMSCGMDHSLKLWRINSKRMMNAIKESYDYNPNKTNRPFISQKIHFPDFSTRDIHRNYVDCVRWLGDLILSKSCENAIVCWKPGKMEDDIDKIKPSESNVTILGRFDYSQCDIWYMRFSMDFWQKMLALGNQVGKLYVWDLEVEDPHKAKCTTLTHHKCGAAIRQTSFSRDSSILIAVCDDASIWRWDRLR
Recombinant PRC2 (EZH2-Y641F), sequence (Q15022 whole entry partner): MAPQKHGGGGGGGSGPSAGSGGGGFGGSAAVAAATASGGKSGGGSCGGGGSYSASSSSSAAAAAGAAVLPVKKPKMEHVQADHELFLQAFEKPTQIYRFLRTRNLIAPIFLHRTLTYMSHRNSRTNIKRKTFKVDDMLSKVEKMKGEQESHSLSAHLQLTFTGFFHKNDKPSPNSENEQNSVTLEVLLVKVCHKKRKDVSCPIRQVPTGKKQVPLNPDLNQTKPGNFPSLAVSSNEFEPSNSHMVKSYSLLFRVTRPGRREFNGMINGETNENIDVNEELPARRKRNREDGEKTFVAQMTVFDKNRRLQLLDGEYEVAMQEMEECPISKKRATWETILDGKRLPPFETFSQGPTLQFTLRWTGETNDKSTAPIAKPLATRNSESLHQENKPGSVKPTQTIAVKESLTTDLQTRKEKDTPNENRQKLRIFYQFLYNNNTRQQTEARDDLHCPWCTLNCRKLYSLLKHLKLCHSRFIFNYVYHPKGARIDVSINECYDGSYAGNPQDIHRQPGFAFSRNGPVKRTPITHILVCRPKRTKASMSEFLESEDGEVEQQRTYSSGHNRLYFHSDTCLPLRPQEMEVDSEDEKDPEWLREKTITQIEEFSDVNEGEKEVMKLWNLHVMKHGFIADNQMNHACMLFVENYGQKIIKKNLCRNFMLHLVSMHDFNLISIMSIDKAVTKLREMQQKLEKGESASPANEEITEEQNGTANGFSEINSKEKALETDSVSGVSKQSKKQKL
Recombinant PRC2 (EZH2-Y641F), sequence (Q09028 whole entry partner): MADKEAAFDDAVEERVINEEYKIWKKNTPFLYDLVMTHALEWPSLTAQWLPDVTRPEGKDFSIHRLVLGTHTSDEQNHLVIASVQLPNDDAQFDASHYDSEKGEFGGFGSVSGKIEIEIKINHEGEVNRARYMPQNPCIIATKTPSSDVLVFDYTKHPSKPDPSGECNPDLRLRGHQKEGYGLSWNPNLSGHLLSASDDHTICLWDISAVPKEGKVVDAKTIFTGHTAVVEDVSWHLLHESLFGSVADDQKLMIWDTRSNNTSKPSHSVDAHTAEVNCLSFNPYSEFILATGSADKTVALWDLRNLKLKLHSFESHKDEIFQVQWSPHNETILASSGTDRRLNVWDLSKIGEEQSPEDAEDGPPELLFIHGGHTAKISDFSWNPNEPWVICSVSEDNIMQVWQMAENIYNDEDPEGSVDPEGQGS
Recombinant PRC2 (EZH2-Y641F), sequence (Q6ZN18 whole entry partner): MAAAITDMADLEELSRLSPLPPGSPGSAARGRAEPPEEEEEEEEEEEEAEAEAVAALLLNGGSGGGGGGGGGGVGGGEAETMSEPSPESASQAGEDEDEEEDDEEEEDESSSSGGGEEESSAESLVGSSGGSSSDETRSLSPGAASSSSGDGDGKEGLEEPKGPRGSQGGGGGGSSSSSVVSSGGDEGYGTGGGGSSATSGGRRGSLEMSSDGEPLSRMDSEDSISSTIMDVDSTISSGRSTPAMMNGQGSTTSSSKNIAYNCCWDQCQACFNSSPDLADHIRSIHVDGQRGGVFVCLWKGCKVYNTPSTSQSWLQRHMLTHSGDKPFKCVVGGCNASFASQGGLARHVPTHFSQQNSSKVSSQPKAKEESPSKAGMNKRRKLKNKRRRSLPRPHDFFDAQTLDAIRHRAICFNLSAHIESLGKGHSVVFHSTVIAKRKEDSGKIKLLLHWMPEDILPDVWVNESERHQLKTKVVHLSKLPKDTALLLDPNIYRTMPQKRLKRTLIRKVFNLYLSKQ

Compared with `CCN(c1cc(-c2ccc(CN3CCOCC3)cc2)cc2c(NCc3c(C)cc(C)[nH]c3=O)nccc12)C1CCOCC1` [Compound Z-1], `CCN(c1cc(-c2ccc(CN3CCNCC3)cc2)cc2c(NCc3c(C)cc(C)[nH]c3=O)nccc12)C1CCOCC1` [Compound Z-8, 3-((5-(ethyl (tetrahydro-2H-pyran-4-yl)amino)-7-(4-(piperazin-1-ylmethyl)phenyl)isoquinoline-1-ylamino)methyl)-4,6-dimethyl-2(1H)-one] is 0.70 log units higher in pIC50: 6.37 for the first, 7.07 for the second.

Compared with `CCN(c1cc(Br)cc2c(NCc3c(C)cc(C)[nH]c3=O)nccc12)C1CCOCC1` [Compound Z-3, 3-((7-bromo-5-(ethyl (tetrahydro-2H-pyran-4-yl)amino)isoquinolin-1-ylamino)methyl)-4,6-dimethyl-2(1H)-one], `CCN(c1cc(Cl)cc2c(NCc3c(C)cc(C)[nH]c3=O)nccc12)C1CCOCC1` [Compound Z-4, 3-((7-chloro-5-(ethyl (tetrahydro-2H-pyran-4-yl)amino)isoquinolin-1-ylamino)methyl)-4,6-dimethyl-2(1H)-one] is 0.20 log units lower in pIC50: 6.73 for the first, 6.53 for the second. The first is the more potent here.

First: CCN(c1cc(C#N)cc2c(NCc3c(C)cc(C)[nH]c3=O)nccc12)C1CCOCC1 [Compound Z-6, 1-((4,6-dimethyl-2-oxo-1,2-dihydropyridin-3-yl)methylamino)-5-(ethyl (tetrahydro-2H-pyran-4-yl)amino)isoquinoline-7-carbonitrile]
Second: CCN(c1cc(C(N)=O)cc2c(NCc3c(C)cc(C)[nH]c3=O)nccc12)C1CCOCC1 [Compound Z-18]
The pIC50 of the first is 0.34 log units lower: 6.21 for the first, 6.55 for the second. The second is the more potent here.

`CCN(c1cc(-c2cnn(C)c2)cc2c(NCc3c(C)cc(C)[nH]c3=O)nccc12)C1CCOCC1` [Compound Z-7, 3-((5-(ethyl (tetrahydro-2H-pyran-4-yl)amino)-7-(1-methyl-1H-pyrazol-4-yl)isoquinoline-1-ylamino)methyl)-4,6-dimethylpyridin-2(1H)-one] and `CCN(c1cc(-c2cn[nH]c2)cc2c(NCc3c(C)cc(C)[nH]c3=O)nccc12)C1CCOCC1` [Compound Z-14] are within 0.2 log units of each other in pIC50: 6.32 for the first, 6.37 for the second.

Going from `CCN(c1cc(Cl)cc2c(NCc3c(C)cc(C)nc3O)nccc12)C1CC2CNCC2C1` (centres unmarked) [Compound Z-9, 3-((7-chloro-5-(ethyl (octahydrocyclopenta[c]pyrrol-5-yl)amino)isoquinolin-1-ylamino)methyl)-4,6-dimethylpyridine-2-ol] to `CCN(c1cc(C(F)(F)F)cc2c(NCc3c(C)cc(C)[nH]c3=O)nccc12)C1CCNCC1` [Compound Z-13, 3-((5-(ethyl (piperidin-4-yl)amino)-7-(trifluoromethyl)isoquinolin-1-ylamino)methyl)-4,6-dimethylpyridine-2(1H)-one], the pIC50 falls from 7.24 to 7.04 (0.20 log units).

First: CCN(c1cc(Br)cc2c(NCc3c(C)cc(C)[nH]c3=O)nccc12)C1CCC(N(C)C)CC1 (centres unmarked) [Compound Z-15, 3-((7-bromo-5-((4-(dimethylamino)cyclohexyl) (ethyl)amino)isoquinolin-1-ylamino)methyl)-4,6-dimethyl-2(1H)-one]
Second: C=C(C)c1cc(N(CC)C2CCC(N(C)C)CC2)c2ccnc(NCc3c(C)cc(C)[nH]c3=O)c2c1 (centres unmarked) [Compound Z-109]
The pIC50 of the first is 0.30 log units higher: 7.04 for the first, 6.74 for the second. The first is the more potent here.

Going from `CCN(c1cc(C(F)(F)F)cc2c(NCc3c(C)cc(C)[nH]c3=O)nccc12)C1CCOCC1` [Compound Z-16, 3-((5-(ethyl (tetrahydro-2H-pyran-4-yl)amino)-7-(trifluoromethyl)isoquinolin-1-ylamino)methyl)-4,6-dimethyl-2(1H)-one] to `CCN(c1cc(C(F)(F)F)cc2c(NCc3c(C)cc(C)[nH]c3=O)nccc12)C1CCC(N(C)C)CC1` (centres unmarked) [Compound Z-134], the pIC50 rises from 6.37 to 6.93 (0.56 log units).

`CCN(c1cc(-c2ccc(CN3CCCCC3)cc2)cc2c(NCc3c(C)cc(C)[nH]c3=O)nccc12)C1CCOCC1` [Compound Z-23] and `CCN(c1cc(-c2ccc(CN3CCN(C)CC3)cc2)cc2c(NCc3c(C)cc(C)[nH]c3=O)nccc12)C1CCOCC1` [Compound Z-29] are within 0.2 log units of each other in pIC50: 6.67 for the first, 6.80 for the second.

Compared with `CCN(c1cc(-c2ccc(N3CCN(C)CC3)nc2)cc2c(NCc3c(C)cc(C)[nH]c3=O)nccc12)C1CCOCC1` [Compound Z-24], `CCN(c1cc(-c2ccc(N3CCN(C)CC3)nc2)cc2c(NCc3c(C)cc(C)[nH]c3=O)nccc12)C1CCNCC1` [Compound Z-56] is 1.33 log units higher in pIC50: 6.82 for the first, 8.15 for the second.

Going from `CCN(CC)Cc1ccc(-c2cc(N(CC)C3CCOCC3)c3ccnc(NCc4c(C)cc(C)[nH]c4=O)c3c2)cc1` [Compound Z-27] to `CCN(c1cc(-c2ccc(CN(C)C)cc2)cc2c(NCc3c(C)cc(C)[nH]c3=O)nccc12)C1CCOCC1` [Compound Z-30], the pIC50 falls from 7.02 to 6.53 (0.49 log units). The first is the more potent here.

`CCN(c1cc(-c2ccc(N3CCOCC3)nc2)cc2c(NCc3c(C)cc(C)[nH]c3=O)nccc12)C1CCOCC1` [Compound Z-28] and `CCN(c1cc(-c2ccc(N3CCOCC3)nc2)cc2c(NCc3c(C)cc(C)[nH]c3=O)nccc12)C1CCN(C(C)=O)CC1` [Compound Z-59] are within 0.2 log units of each other in pIC50: 6.47 for the first, 6.56 for the second.

Compared with `CCN(c1cc(-c2ccc(CN3CCC[C@H](O)C3)cc2)cc2c(NCc3c(C)cc(C)[nH]c3=O)nccc12)C1CCOCC1` [Compound Z-31], `CCN(c1cc(-c2ccc(CN3CCOCC3)cc2)cc2c(NCc3c(C)cc(C)[nH]c3=O)nccc12)C1CCC(O)CC1` (centres unmarked) [Compound Z-88] is 0.31 log units higher in pIC50: 6.48 for the first, 6.79 for the second. The second is the more potent here.

First: CCN(c1cc(-c2ccc(NC3CCOCC3)cc2)cc2c(NCc3c(C)cc(C)[nH]c3=O)nccc12)C1CCOCC1 [Compound Z-32]
Second: CCN(c1cc(-c2ccc(CN3CCOCC3)cc2)cc2c(NCc3c(C)cc(C)[nH]c3=O)nccc12)C1CCC(NC(C)=O)CC1 (centres unmarked) [Compound Z-33]
The pIC50 of the first is 0.53 log units lower: 6.31 for the first, 6.84 for the second. The second is the more potent here.

Going from `CCN(c1cc(-c2cnn(C)c2)cc2c(NCc3c(C)cc(C)[nH]c3=O)nccc12)[C@H]1CC[C@H](N(C)C)CC1` [Compound Z-38] to `CCN(c1cc(-c2cnn(C3CCN(C)CC3)c2)cc2c(NCc3c(C)cc(C)[nH]c3=O)nccc12)C1CCC(N(C)C)CC1` (centres unmarked) [Compound Z-79], the pIC50 rises from 6.86 to 7.35 (0.49 log units). The second is the more potent here.

Compared with `CCN(c1cc(-c2ccc(CN3CCOCC3)cc2)cc2c(NCc3c(C)cc(C)[nH]c3=O)nccc12)C1CCC(N(C)C)CC1` (centres unmarked) [Compound Z-41], `CCN(c1cc(-c2ccc(CN3CCOCC3)cc2)cc2c(NCc3c(C)cc(C)[nH]c3=O)nccc12)C1CCN(C(C)=O)CC1` [Compound Z-60] is 0.93 log units lower in pIC50: 7.42 for the first, 6.49 for the second. The first is the more potent here.

First: CCN(c1cc(-c2ccc(N3CCOCC3)nc2)cc2c(NCc3c(C)cc(C)[nH]c3=O)nccc12)C1CCC(NC(C)=O)CC1 (centres unmarked) [Compound Z-48]
Second: CCN(c1cc(-c2ccc(N3CCOCC3)nc2)cc2c(NCc3c(C)cc(C)[nH]c3=O)nccc12)C1CCN(C2CC2)CC1 [Compound Z-87]
The pIC50 of the first is 0.20 log units higher: 6.52 for the first, 6.32 for the second. The first is the more potent here.

First: CCN(c1cc(-c2ccc(N3CCN(C)CC3)nc2)cc2c(NCc3c(C)cc(C)[nH]c3=O)nccc12)C1CCN(C)CC1 [Compound Z-50]
Second: CCN(c1cc(-c2ccc(N3CCN(C)CC3)nc2)cc2c(NCc3c(C)cc(C)[nH]c3=O)nccc12)C1CCN(C(C)=O)CC1 [Compound Z-57]
The pIC50 of the first is 0.52 log units higher: 7.59 for the first, 7.07 for the second. The first is the more potent here.

Going from `CCN(c1cc(C2=CCN(C)CC2)cc2c(NCc3c(C)cc(C)[nH]c3=O)nccc12)C1CCC(N(C)C)CC1` (centres unmarked) [Compound Z-61] to `CCN(c1cc(-c2ccccc2)cc2c(NCc3c(C)cc(C)[nH]c3=O)nccc12)C1CCC(N(C)C)CC1` (centres unmarked) [Compound Z-75], the pIC50 falls from 7.92 to 6.89 (1.03 log units). The first is the more potent here.

`CCN(c1cc(-c2cnc(N3CCOCC3)nc2)cc2c(NCc3c(C)cc(C)[nH]c3=O)nccc12)C1CCN(C(C)C)CC1` [Compound Z-62] and `CCN(c1cc(-c2cnc(N3CCN(C)CC3)nc2)cc2c(NCc3c(C)cc(C)[nH]c3=O)nccc12)C1CCN(C(C)C)CC1` [Compound Z-67] are within 0.2 log units of each other in pIC50: 7.10 for the first, 7.15 for the second.

`CCN(c1cc(-c2cccnc2)cc2c(NCc3c(C)cc(C)[nH]c3=O)nccc12)C1CCN(C(C)C)CC1` [Compound Z-68] and `CCN(c1cc(-c2ccc(CN3CCOCC3)nc2)cc2c(NCc3c(C)cc(C)[nH]c3=O)nccc12)C1CCN(C(C)C)CC1` [Compound Z-69] are within 0.2 log units of each other in pIC50: 6.82 for the first, 7.00 for the second.

`CCN(c1cc(-c2ccc(N3CCN(C)CC3)nc2)cc2c(NCc3c(C)cc(C)[nH]c3=O)nccc12)C1CCN(CCF)CC1` [Compound Z-76] and `CCN(c1cc(-c2ccc(N3CCN(C)CC3)nc2)cc2c(NCc3c(C)cc(C)[nH]c3=O)nccc12)C1CCN(CCOC)CC1` [Compound Z-81] are within 0.2 log units of each other in pIC50: 7.22 for the first, 7.28 for the second.

`CCN(c1cc(-c2cncc(C(F)(F)F)c2)cc2c(NCc3c(C)cc(C)[nH]c3=O)nccc12)[C@H]1CC[C@H](N(C)C)CC1` [Compound Z-77] and `CCN(c1cc(-c2ccc(CN(C)C)nc2)cc2c(NCc3c(C)cc(C)[nH]c3=O)nccc12)C1CCC(N(C)C)CC1` (centres unmarked) [Compound Z-128] are within 0.2 log units of each other in pIC50: 6.75 for the first, 6.65 for the second.

`CCN(c1cc(-c2ccc(Oc3cccnc3)cc2)cc2c(NCc3c(C)cc(C)[nH]c3=O)nccc12)C1CCC(N(C)C)CC1` (centres unmarked) [Compound Z-78] and `CCN(c1cc(-c2ccc(Oc3ccncc3)cc2)cc2c(NCc3c(C)cc(C)[nH]c3=O)nccc12)C1CCC(N(C)C)CC1` (centres unmarked) [Compound Z-83] are within 0.2 log units of each other in pIC50: 6.70 for the first, 6.61 for the second.

Going from `CCN(c1cc(-c2ccc(N3CCN(C)CC3)c(F)c2)cc2c(NCc3c(C)cc(C)[nH]c3=O)nccc12)C1CCC(N(C)C)CC1` (centres unmarked) [Compound Z-80] to `CCN(c1cc(-c2ccc(CN3CCN(C)CC3)nc2)cc2c(NCc3c(C)cc(C)[nH]c3=O)nccc12)C1CCN(C2CC2)CC1` [Compound Z-84], the pIC50 falls from 7.59 to 7.08 (0.51 log units).

`CCN(c1cc(-c2ccc(C(=O)Nc3ccccn3)cc2)cc2c(NCc3c(C)cc(C)[nH]c3=O)nccc12)C1CCC(N(C)C)CC1` (centres unmarked) [Compound Z-110] and `CCN(c1cc(-c2ccc(C(=O)N3CCOCC3)nc2)cc2c(NCc3c(C)cc(C)[nH]c3=O)nccc12)C1CCN(C(C)C)CC1` [Compound Z-123] are within 0.2 log units of each other in pIC50: 7.17 for the first, 7.12 for the second.

First: CCN(c1cc(-c2nccn2C)cc2c(NCc3c(C)cc(C)[nH]c3=O)nccc12)C1CCOCC1 [Compound Z-117]
Second: CCN(c1cc(-c2ccc(C(=O)N3CCN(C)CC3)nc2)cc2c(NCc3c(C)cc(C)[nH]c3=O)nccc12)C1CCN(C(C)C)CC1 [Compound Z-124]
The pIC50 of the first is 0.83 log units lower: 6.46 for the first, 7.29 for the second.

Same assay, conditions: read-out: EZH2 Y641F IC50; Recombinant PRC2 (EZH2-Y641F), LANCE Ultra detection, 3 hours reaction

In the case of `CCN(c1cc(C(N)=O)cc2c(NCc3c(C)cc(C)[nH]c3=O)nccc12)C1CCC(N(C)C)CC1` (centres unmarked) [Compound Z-21], the pIC50 was 6.69.
